Article PMC8868346, “Novel Series of Dual NRF2 Inducers and Selective MAO-B Inhibitors for the Treatment of Parkinson’s Disease” (Antioxidants, 2022)
Read-outs that look alike come from different tables or passages of the source.

What was measured:
[1] = molecular target: MAO-B; conditions: cited from earlier work
[2] = tested on: SH-SY5Y; conditions: human
Description: They were recovered by centrifugation at 800 rpm for 10 min. Cells from the third to twelfth passage were seeded at a density of 80,000 cells/well in 96-well plates for the neuroprotection studies.
(§1) Basal absorbance was set to 100% and results were normalized to basal conditions.
(§2) Cytotoxicity. LD50 values in several cell cultures employed
(§3) Table S2. Cytotoxicity elicited by 10-18 compounds in SH-SY5Y, AREc32 and mixed pr imary glial cultures. Viability was measured as MTT reduction in presence of increasing concentrations of der ivatives. LD50 values were calcula ted from dose-response curves. Data are expr essed as mean ± SEM of at least 3 independent experiments.
(§4) 1.3. PAMPA control compounds (BBB permeability)
(§5) Table S3. Pr ediction of the BBB passive permeability of control compounds

[3] = tested on: SH-SY5Y cells; assay: Neuroprotection in SH-SY5Y against rotenone/oligomycin A (MTT); assay type: cell-based, human; conditions: compound 0.1 µM, 24 h pre- and 24 h co-incubation
Description: (§6) Cells were seeded at a density of 60,000 cells/well in 96-well transparent plates for 24 h. Then cells were pre-incubated with the corresponding compound at 0.1 μM. After 24 h, the medium was removed and replaced with 1% (v/v) FBS media containing the corresponding compound at 0.1 µM and the selected toxic stimuli, namely a mixture of rotenone and oligomycin A (R/O; 30/10 μM, respectively; Sigma–Aldrich, Spain) or 6-hydroxydopamine (100 µM; Sigma–Aldrich, Spain). […].

[4] = tested on: rat striatal slices; assay: Rat striatal slices exposed to rotenone: ROS production; assay type: cell-based; conditions: compound 10 µM, rotenone 10 µM, 4 h
Description: Three- to four-month-old Sprague–Dawley rats were decapitated, the brain was removed, and the two brain hemispheres were separated. Each hemisphere was then cut into 300-µm coronal slices using a McIlwain Tissue Chopper (Cavey Laboratory Engineering, Surrey, UK) and separated in a previously oxygenated (95% O2 and 5% CO2) ice-cold Krebs’s dissection buffer (120 mM of NaCl; 2 mM of KCl; 26 mM of NaHCO3; 1.18 mM of KH2PO4; 10 mM of MgSO4; 0.5 mM of CaCl2; 11 mM of glucose; and 200 mM sucrose at pH 7.4) using a Leica SE6 microscope (Leica, Madrid, Spain). Striatum-containing slices were selected and immediately incubated for stabilization in dissection buffer without sucrose, bubbled with 95% O2 and 5% CO2 for 45 min at 34 °C, allowing slices to recover from slicing injury. […] Finally, cell death and the ROS production were measured.
ROS quantification was performed using the fluorescent probe 2,7′-dichlorodihydrofluorescein diacetate (H2DCFDA, λEx/Em = 495/529 nm; Thermo Fisher, Madrid, Spain). Cell death quantification was performed using the fluorescent probe propidium iodide (PI, λEx/Em = 535/617 nm; Thermo Fisher, Madrid, Spain). […] Fluorescence from striatum slices was then recorded for H2DCFDA (λEx/Em = 495/529 nm), PI (λEx/Em = 535/617 nm), and Hoechst (λEx/Em = 350/461 nm), in an inverted Nikon Eclipse T2000-U microscope (Nikon, Tokyo, Japan). […]

[5] = tested on: IL-1β; assay: IL-1β levels by ELISA in LPS stimulated primary mixed glial cultures; assay type: cell-based, rat; conditions: compound 10 μM; LPS 1 µg/mL 18 h
Description: Cells were cultured for 7–10 days before treatment.
Primary glial cells were pre-treated with compounds at the desired concentration for 24 h. Then, treatments were removed and glial cells were incubated with lipopolysaccharide (LPS, 1 μg/mL; Sigma–Aldrich, Spain) in the presence of each compound at the desired concentration for 18 h. Nitrite production was then assessed by modified Griess assay. Briefly, 150 µL of each sample was mixed with 75 µL of 4,4′-diamino-diphenylsulfone (Dapsone) and 75 µL of N-(1-naphthyl)ethylenediamine (Neda). The mixture was incubated at room temperature for 5 min. […] Data were normalized to basal conditions, setting this value as 100% of nitrite production. EC50 values were calculated from dose–response curves obtained from representing percentage of nitrites reduction vs. compound concentration.
Supernatants obtained from mixed primary glial cell cultures were used to determine IL-1β levels by quantitative ELISA kits (Preprotech, R&D Systems-bioNova, Madrid, Spain) following the manufacturer’s instructions. Commercial solution of IL-1β was used to generate a standard curve for sample quantification. Absorbance was measured in a microplate reader SPECTROstar Nano (BMG Labtech) at 405 with 650 nm correction.

[6] = tested on: SH-SY5Y cells; assay: Neuroprotection in SH-SY5Y against 6-hydroxydopamine (MTT); assay type: cell-based, human; conditions: 6-OHDA 100 µM; compound 0.1 µM, 24 h pre- and 24 h co-incubation
Description: as §6

[7] = tested on: NRF2; assay: NRF2 induction, luciferase activity in AREc32 reporter cells; assay type: cell-based, human; conditions: Homo sapiens; AREc32 cells, 24 h; concentration required to double luciferase activity compared to basal; read-out: CD (µM) NRF2 Induction
Description: Cells were used from the third to twelfth passage.
AREc32 cells were stably transfected with the plasmid pGL-8xARE that implements 8 copies of the antioxidant response element (ARE) sequences followed by luciferase reporter gen. Therefore, NRF2 induction can be related to the activation of ARE sequences by measuring luciferase activity in terms of luminescence production. For NRF2 induction experiments, cells were plated in 96 white flat bottom well plates (20,000 cells/well). After 24 h, cells were incubated with selected compounds at the desired concentrations in duplicates for 24 h. The Luciferase Assay System (Promega E1500) was used according to provider protocol and luminescence was quantified in an Orion II microplate luminometer (Berthold, Germany). Fold induction of luciferase activity was normalized to basal conditions. Data were expressed as CD values, which means the concentration needed to duplicate the luciferase activity compared to basal conditions. CD values were calculated from dose–response curves fitted by non-linear regression for each compound after logarithmic transformation of the data using GraphPad Prism 8.0 software.

[8] = tested on: Mixed primary glial cultures; assay: Cytotoxicity in mixed primary glial cultures (MTT); conditions: Sprague-Dawley, rat
Description: Mixed primary glial cultures were obtained from cerebral cortex of 2–5-day-old Sprague–Dawley rats. Blood vessels and meninges were first removed in Hank’s balanced salt solution (HBSS) and then forebrains were dissociated in DMEM/F12 medium. After mechanical dissociation, filtering, and centrifugation at 800 rpm for 10 min, cells were plated at a density of 30,000 cells/well in DMEM/F12 medium with 20% (v/v) FBS and 1% penicillin/streptomycin (10,000 units). […] After 5 days, medium was substituted by DMEM/F12 medium with 10% (v/v) FBS. Cells were cultured for 7–10 days before treatment.
as §1, §2, §3, §4, §5

[9] = tested on: AREc32
Description: AREc32 cells, shared by CR Wolf, were grown in Dulbecco’s modified Eagle medium (DMEM) with GlutaMAX (Gibco, Invitrogen, Madrid, Spain), supplemented with 10% (v/v) filtrated fetal bovine serum (FBS; Gibco, Invitrogen, Madrid, Spain), 1% of antibiotics penicillin-streptomycin, and geneticin (0.8 mg/mL G418; Gibco, Invitrogen, Madrid, Spain). […] They were recovered by centrifugation at 800 rpm for 10 min. Cells were used from the third to twelfth passage.
as §1, §2, §3, §4, §5

[10] = molecular target: T1, MAO-B (Homo sapiens, UniProt P27338); assay: MAO-B reversibility assay (pre-incubation times); assay type: biochemical; conditions: 0, 15, 30 min pre-incubation at […] IC50
T1 construct: purchased Sigma–Aldrich
T1 sequence (P27338 1-520): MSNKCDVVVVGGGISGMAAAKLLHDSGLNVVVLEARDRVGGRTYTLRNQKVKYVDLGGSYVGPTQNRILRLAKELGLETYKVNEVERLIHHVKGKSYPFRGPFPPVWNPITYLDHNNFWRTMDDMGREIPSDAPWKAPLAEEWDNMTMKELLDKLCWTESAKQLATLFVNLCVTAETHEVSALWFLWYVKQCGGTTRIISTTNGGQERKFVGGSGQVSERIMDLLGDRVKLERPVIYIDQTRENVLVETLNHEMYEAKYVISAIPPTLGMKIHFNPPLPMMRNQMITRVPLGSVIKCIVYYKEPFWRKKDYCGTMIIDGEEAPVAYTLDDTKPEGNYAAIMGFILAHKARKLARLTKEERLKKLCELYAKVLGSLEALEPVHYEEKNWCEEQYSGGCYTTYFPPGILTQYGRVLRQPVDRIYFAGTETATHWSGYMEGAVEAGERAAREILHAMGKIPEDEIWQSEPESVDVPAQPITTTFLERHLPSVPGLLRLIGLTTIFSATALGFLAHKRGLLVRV

[11] = tested on: MAO-B; conditions: read-out: IC50 for MAO-B; cited from earlier work
[12] = tested on: blood-brain barrier (passive diffusion); assay: Blood–brain barrier permeation assay (PAMPA); conditions: PAMPA, pH 7.4
[13] = Blood–brain barrier permeation assay (PAMPA); conditions: BBB permeability class from Pe
[14] = tested on: MAO-A; conditions: read-out: IC50 for MAO-A; cited from earlier work
[15] = Oxygen radical absorbance capacity (ORAC) assay; conditions: Trolox equivalents, AAPH, fluorescein
Description: The ORAC test was performed to evaluate the oxygen free radical scavenger capacity of the compounds. […] Compounds at desired concentrations (0.03, 0.1, 0.3, 1, 3, and 10 µM) were diluted in phosphate-buffered saline (PBS; 10 mM, pH 7.4) at 37 °C and placed in a 96 black flat bottom well plate. […] A fluorescence measurement was done first to determine the basal signal. Then, 25 µL of 2, 2′-azobis-amidinopropane dihydrochloride (AAPH) (12 mM final concentration) was quickly added. All samples were measured in duplicates in three different experiments. […] Results were expressed in terms of Trolox equivalents (T.eq.), obtained by plotting net AUC versus compound concentration, then performing linear regression and normalizing slopes of the compounds considering Trolox as reference.

[16] = tested on: nitrite production in mixed primary glial cultures; conditions: read-out: EC50 Nitrite Reduction; positive control; cited from earlier work

SMILES: C(=CCc1ccccc1)Cc1ccccc1 [1,4-diphenyl-2-butene]
- Ki [1]: 35000 nM

SMILES: COc1ccc2[nH]cc(CCNC(C)=O)c2c1 [Melatonin, reference compound]
- LD50 (µM) SH-SY5Y [2]: > 100 µM
- R/O (30/10 µM) Protection (%) [3]: 22.3%
- ROS levels (H2DCFDA), rotenone model [4]: reduced
- IL-1β Levels % Reduction (10 μM) [5]: 31.6 ± 7.00%
- 6-OHDA Protection (%) [6]: 88.8%
- EC50 [7]: > 30 µM
- LD50 (µM) Mixed primary glial cultures [8]: > 30 µM
- LD50 (µM) AREc32 ([9]; human): > 30 µM

SMILES: C#CCN[C@@H]1CCc2ccccc21 [Rasagiline, reference compound]
- MAO-B inhibition reversibility [10]: Irreversible
- R/O (30/10 µM) Protection (%) [3]: 28.9%
- Papp at 4 h, 100 µM [12]: 23.5 ± 4.2 ×10⁻⁶ cm/s
- PAMPA Prediction [13]: CNS + (CNS + (high BBB permeability): Pe (10^−6 cm s^−1) > 4.0)
- 6-OHDA Protection (%) [6]: 77.0%
- ORAC (T. eq.) [15]: 0.04 ± 0.02 T. eq.
- ORAC (T. eq.) ([15]; listed as rasagiline): no effect
- LD50 (µM) AREc32 ([9]; MTT reduction): > 30 µM

SMILES: C[S+]([O-])CCCCN=C=S (centres unmarked) [Sulforaphane]
- EC50 [16]: 1400 ± 300 nM
